For assay [1], the system named is flies with reduced life span due to Cu/ZnSOD and MnSOD deficiency. Particulars: Cu/ZnSOD and MnSOD deficient flies; cited from earlier work.
The subject of the next assay is wild-type flies. The conditions noted are these: cited from earlier work.
A further assay concerns NF1^P1/P2 flies. The assay is described as follows: Longevity assay, NF1 mutant flies fed catalytic antioxidants. In kind it is in vivo, Drosophila melanogaster. The conditions noted are these: for increase in survivorship: NF1^P1/P2 flies fed the antioxidant; for effect on life span of NF1 mutant flies (in words): feeding 10 μM, NF1^P1/P2 males and females. How it is done: Life spans were determined at 25° C. and 50% humidity with a 12-h light/dark cycle. Male and female flies were collected under brief CO2 anesthesia 2 to 3 d after eclosion, allowing time for mating. The number of deceased flies was recorded every 2 to 3 d, when flies were transferred to fresh cornmeal agar medium. Both Statview 5.0 and Prism GraphPad software were used for survival data and mortality curves analysis. Survival data were analyzed by Kaplan-Meier analysis in Statview 5.0. The log-rank (Mantel-Cox) test results are presented. Censored data were recorded and analyzed with GraphPad software.
(§1) MnTBAP (Oxis) and MnTDEIP (Aeolus Pharmaceuticals) were dissolved in PBS (Mediatech) before further dilution with cornmeal food to make desired concentration. Red food dye (six drops per 500 ml food) was added to the food to ensure homogeneity.

The next assay relates to NF1^P1/P2 mutants. The assay can be described thus: Locomotive (up-climbing) recovery after heat stress, antioxidant-fed NF1 mutants. Format: in vivo, Drosophila melanogaster. Particulars: 20 min 37° C. heat stress. How it is done: Locomotive assays were performed on 3- to 4-d-old flies. Flies were placed in 90 mm×20 mm vertical tubes containing a small quantity of cornmeal food at the bottom with a line drawn horizontally 10 mm from the base. Every 5 min, the vials were tapped until the flies were at the bottom of the vials. Then, flies were given 15 s to climb (up-climbing behavior) toward the top of the vial, and the numbers of flies above the 10 mm line were recorded. The locomotive index is the percentage of flies that climbed up after 15 s. After 30 min of baseline recording at 22° C., flies were subjected to a brief 20-min heat treatment at 37° C. and were then returned to 22° C. for recovery. The locomotive index was then plotted against time over the course of the experiment to determine the recovery time (τ).
as §1

For assay [2], the system named is mitochondrial ROS production. Particulars: cited from earlier work.
Another assay has as its system w^1118 flies. The assay can be described thus: Longevity assay, w^1118 flies fed cAMP analogs. Format: in vivo, Drosophila melanogaster. How it is done:
Male and female flies were collected under brief CO2 anesthesia 2 to 3 d after eclosion, allowing time for mating. The number of deceased flies was recorded every 2 to 3 d, when flies were transferred to fresh cornmeal agar medium. Both Statview 5.0 and Prism GraphPad software were used for survival data and mortality curves analysis. Survival data were analyzed by Kaplan-Meier analysis in Statview 5.0. The log-rank (Mantel-Cox) test results are presented. […] The stock solutions were subsequently diluted into food to make the specific concentrations of 1 μM and 10 μM. Red food dye (six drops per 500 ml food) was added to the supplemented food to insure homogeneity.

Entries after “also recorded” stand apart in the source; their conditions may differ. A value given as a limit tells only on which side of the number the result lay.

As to `[Cl-].[Mn+3].[O-]c1ccccc1C=NCCN=Cc1ccccc1[O-]` [EUK-8, manganese N,N′-bis(salicyidene) ethylenediamine chloride], the “effect on life span (in words)” value is recorded as “partially restored normal life span” in assay [1] and “shortened their life spans” in the assay on wild-type flies.

For `COC1=C(OC)C(=O)C(CCCCCCCCCC[P+](c2ccccc2)(c2ccccc2)c2ccccc2)=C(C)C1=O` [MitoQ], the figures for the “effect on life span (in words)” value (in assay [1]; in the assay on wild-type flies) were “partially restored normal life span” and “shortened their life spans”, respectively.

As to `O=C(O)c1ccc(-c2c3nc(c(-c4ccc(C(=O)O)cc4)c4ccc([n-]4)c(-c4ccc(C(=O)O)cc4)c4nc(c(-c5ccc(C(=O)O)cc5)c5ccc2[n-]5)C=C4)C=C3)cc1.[Mn+3]` [MnTBAP, Mn(III)tetrakis(4-benzoic acid) porphyrin], in the assay with NF1^P1/P2 flies, the increase in survivorship entry is “approximately 50%” and the “effect on life span of NF1 mutant flies (in words)” value was “restores normal life span; also recorded: extended”. Also, the “recovery of locomotive performance after heat stress (in words)” value in the assay with NF1^P1/P2 mutants was “enhanced the recovery rate of locomotive performance; also recorded: rescued delayed heat stress recovery time”. Further, the “mitochondrial ROS production and oxidative damage (in words)” value in assay [2] is “reduce mitochondrial ROS production and oxidative damage”.

As to `CCCC(=O)Nc1ncnc2c1ncn2[C@@H]1O[C@@H]2COP(=O)(O)O[C@H]2[C@H]1OC(=O)CCC` [db-cAMP, dibutyryl-cAMP], in the assay on w^1118 flies (adult males fed 1 μM or 10 μM), the “increase in median life span” value turned out to be 30%. Further, the “increase in life span” value with w^1118 flies (females fed 1 μM) is 60%; in the assay on w^1118 flies (females fed 10 μM) it was over 100%. For the same compound, in the assay on w^1118 flies (male and female w^1118 flies, 1 μM and 10 μM in food), the “effect on life span of w^1118 flies (in words)” value was “extends life spans”.

Regarding “tetrakis(1,3-diethyl imidazolium-2-yl) meso-substituted manganoporphyrin [MnTDEIP]”, in the assay with NF1^P1/P2 flies, the increase in survivorship result was “approximately 50%” and the “effect on life span of NF1 mutant flies (in words)” value is on record as “extended”. The “recovery of locomotive performance after heat stress (in words)” value with NF1^P1/P2 mutants is given as “enhanced the recovery rate of locomotive performance; also recorded: rescued delayed heat stress recovery time”.

(Values after patent US20110243854A1, “Methods and systems for identifying modulators of longevity” (The Regents of the University of California, priority 2007, published 2011).)
